From ChEMBL document CHEMBL4627293, “Synthesis and in vitro activity of asymmetric indole-based bisamidine compounds against Gram-positive and Gram-negative pathogens” (2020)
Values after ≈ are worked out from the molar mass of the structure shown.

Assays:
Assay type in all cases: functional
Staphylococcus aureus [1] = assay: Antimicrobial activity against methicillin-sensitive Staphylococcus aureus ATCC 29213
Staphylococcus aureus [2] = assay: Antimicrobial activity against methicillin- resistant Staphylococcus aureus ATCC 33591
Enterococcus faecalis [3] = assay: Antimicrobial activity against Vancomycin-sensitive Enterococcus faecalis ATCC 29212
Enterococcus faecalis [4] = assay: Antimicrobial activity against Vancomycin-resistant Enterococcus faecalis ATCC 51299
Escherichia coli [5] = assay: Antimicrobial activity against Escherichia coli ATCC 25922
Klebsiella pneumoniae [6] = assay: Antimicrobial activity against ESBL-producing Klebsiella pneumoniae ATCC 700603
Klebsiella pneumoniae [7] = assay: Antimicrobial activity against NDM-1 producing Klebsiella pneumoniae ATCC BAA-2146
Pseudomonas aeruginosa [8] = assay: Antimicrobial activity against Pseudomonas aeruginosa ATCC 27853
Citrobacter freundii [9] = assay: Antimicrobial activity against Citrobacter freundii ATCC 43864
Providencia rettgeri = assay: Antimicrobial activity against Providencia rettgeri ATCC 31052
Proteus vulgaris = assay: Antimicrobial activity against Proteus vulgaris ATCC 29905
[10] = system: Staphylococcus epidermidis; assay: Antimicrobial activity against methicillin-susceptible Staphylococcus epidermidis ATCC 12228
Enterococcus faecium = assay: Antimicrobial activity against vancomycin-resistant Enterococcus faecium ATCC 700221
Klebsiella pneumoniae [11] = assay: Antimicrobial activity against Klebsiella pneumoniae 7
[12] = system: Acinetobacter calcoaceticus; assay: Antimicrobial activity against Acinetobacter calcoaceticus ATCC 19606
Klebsiella pneumoniae [13] = assay: Potency index, ratio of MIC for Levofloxacin to MIC for test compound against NDM-1 producing Klebsiella pneumoniae ATCC BAA-2146
Klebsiella aerogenes = assay: Antimicrobial activity against Enterobacter aerogenes ATCC 45102
Escherichia coli [14] = assay: Potency index, ratio of MIC for 2-[4-[4-[6-(N,N-dimethylcarbamimidoyl)-1H-indol-2-yl]phenoxy]phenyl]-N,N-dimethyl-1H-indole-6-carboxamidine to MIC for test compound against Escherichia coli ATCC 25922
Klebsiella pneumoniae [15] = assay: Potency index, ratio of MIC for 2-[4-[4-[6-(N,N-dimethylcarbamimidoyl)-1H-indol-2-yl]phenoxy]phenyl]-N,N-dimethyl-1H-indole-6-carboxamidine to MIC for test compound against ESBL-producing Klebsiella pneumoniae ATCC 700603
Klebsiella pneumoniae [16] = assay: Potency index, ratio of MIC for 2-[4-[4-[6-(N,N-dimethylcarbamimidoyl)-1H-indol-2-yl]phenoxy]phenyl]-N,N-dimethyl-1H-indole-6-carboxamidine to MIC for test compound against Klebsiella pneumoniae 7
Klebsiella pneumoniae [17] = assay: Potency index, ratio of MIC for 2-[4-[4-[6-(N,N-dimethylcarbamimidoyl)-1H-indol-2-yl]phenoxy]phenyl]-N,N-dimethyl-1H-indole-6-carboxamidine to MIC for test compound against NDM-1 producing Klebsiella pneumoniae ATCC BAA-2146
Pseudomonas aeruginosa [18] = assay: Potency index, ratio of MIC for 2-[4-[4-[6-(N,N-dimethylcarbamimidoyl)-1H-indol-2-yl]phenoxy]phenyl]-N,N-dimethyl-1H-indole-6-carboxamidine to MIC for test compound against Pseudomonas aeruginosa ATCC 27853
Citrobacter freundii [19] = assay: Potency index, ratio of MIC for 2-[4-[4-[6-(N,N-dimethylcarbamimidoyl)-1H-indol-2-yl]phenoxy]phenyl]-N,N-dimethyl-1H-indole-6-carboxamidine to MIC for test compound against Citrobacter freundii ATCC 43864

SMILES	MIC (Staphylococcus aureus [1]) [µg/mL]	MIC (Staphylococcus aureus [2]) [µg/mL]	MIC (Enterococcus faecalis [3]) [µg/mL]	MIC (Enterococcus faecalis [4]) [µg/mL]	MIC (Escherichia coli [5]) [µg/mL]	MIC (Klebsiella pneumoniae [6]) [µg/mL]	MIC (Klebsiella pneumoniae [7]) [µg/mL]	MIC (Pseudomonas aeruginosa [8]) [µg/mL]	MIC (Citrobacter freundii [9]) [µg/mL]	MIC (Providencia rettgeri) [µg/mL]	MIC (Proteus vulgaris) [µg/mL]	MIC [10] [µg/mL]	MIC (Enterococcus faecium) [µg/mL]	MIC (Klebsiella pneumoniae [11]) [µg/mL]	MIC [12] [µg/mL]	MIC (Klebsiella aerogenes) [µg/mL]	further results
COc1cc(Oc2ccc(-c3cc4ccc(C(=N)N(C)C)cc4[nH]3)cc2)ccc1-c1cc2ccc(C(=N)N(C)C)cc2[nH]1	0.25 (≈ 0.438 µM)	0.25 (≈ 0.438 µM)	0.5 (≈ 0.876 µM)	0.5 (≈ 0.876 µM)	2 (≈ 3.5 µM)	8 (≈ 14 µM)	8 (≈ 14 µM)	128 (≈ 224 µM)	4 (≈ 7.01 µM)	8 (≈ 14 µM)	8 (≈ 14 µM)	0.25 (≈ 0.438 µM)	1 (≈ 1.75 µM)	8 (≈ 14 µM)	64 (≈ 112 µM)		Ratio (Klebsiella pneumoniae [13]): 16
C/N=C(\NC)c1ccc2cc(-c3ccc(Oc4ccc(-c5cc6ccc(/C(=N\C)NC)cc6[nH]5)cc4)cc3)[nH]c2c1	8 (≈ 14.8 µM)	8 (≈ 14.8 µM)	8 (≈ 14.8 µM)	16 (≈ 29.6 µM)	64 (≈ 118 µM)	> 128	128 (≈ 237 µM)	> 128	> 128	> 128	> 128					> 128	
CN(C)C(=N)c1ccc2cc(-c3ccc(Oc4ccc(-c5cc6ccc(C(=N)N(C)C)cc6[nH]5)nc4)cc3)[nH]c2c1	0.125 (≈ 0.231 µM)	0.125 (≈ 0.231 µM)	0.5 (≈ 0.923 µM)	0.5 (≈ 0.923 µM)	1 (≈ 1.85 µM)	4 (≈ 7.38 µM)	2 (≈ 3.69 µM)	32 (≈ 59.1 µM)	2 (≈ 3.69 µM)	4 (≈ 7.38 µM)	4 (≈ 7.38 µM)	0.25 (≈ 0.462 µM)	1 (≈ 1.85 µM)	2 (≈ 3.69 µM)	64 (≈ 118 µM)		Ratio (Escherichia coli [14]): 4; Ratio (Klebsiella pneumoniae [15]): 4; Ratio (Klebsiella pneumoniae [16]): 4; Ratio (Klebsiella pneumoniae [17]): 4; Ratio (Pseudomonas aeruginosa [18]): 4; Ratio (Citrobacter freundii [19]): 4
C[C@H]1COc2c(N3CCN(C)CC3)c(F)cc3c(=O)c(C(=O)O)cn1c23.C[C@H]1COc2c(N3CCN(C)CC3)c(F)cc3c(=O)c(C(=O)O)cn1c23.O [LEVOFLOXACIN]	0.25	0.25	1	1		2	> 128		0.03	0.125	0.125	0.25	32	16	0.25	0.25	
